“Also recorded” adds a separate entry of the source.
Key:
[1] = tested on: wild-type mice in AngII-dependent hypertension model; test: Ang II-dependent hypertension model, blood pressure by radiotelemetry; type: in vivo
Protocol: To study the role of IL-1 receptor (IL-1 R) activation in hypertension, uni-nephrectomized IL-1 R-deficient(IL-1R KO) and wild-type (WT) mice was chronically infused with angiotensin II (Ang II; 1000 ng/kg/min) for 4 weeks using an implanted osmotic mini-pump after measurement of baseline blood pressures. Chronic angiotensin II infusion in rodents is a widely accepted model of hypertension that leads to the same complications in rodents as those seen in humans including cardiac hypertrophy and kidney damage. Unilateral nephrectomy renders the remaining kidney more susceptible to injury in this hypertension model. In the experiments of the disclosure baseline mean arterial pressures (MAPs) were similar between groups.
In the present disclosure, Anakinra was administered at 50 mg/kg/day IP to wild-type mice in AngII-dependent hypertension model.
FIG. 3B illustrates the effect of treatment with 50 mg/kg/day IP once daily beginning 3 days prior to and continuing throughout the Ang II infusion period.
Uni-nephrectomized IL-1 R-deficient(IL-1R KO) and wild-type (WT) mice was chronically infused with (1000 ng/kg/min) for 4 weeks using an implanted osmotic mini-pump after measurement of baseline blood pressures. […] Blood pressure was monitored continuously using radiotelemetry.

[2] = tested on: Ang II-infused mice; test: Target organ damage (cardiac hypertrophy, albuminuria) in Ang II-induced hypertension; type: in vivo; details: Ang II-infused mice treated with anakinra
Protocol: For example, the Ang 11-infused IL-1 R KO mice had less cardiac hypertrophy than WJ mice as measured by heart weight/body weight ratios (7.5±0.9 vs. 9.3±0.8 mg/g, p<0.001). Loss of albumin in the urine is a marker for kidney glomerular damage in humans, and Ang 11-infused IL-1 R KO mice had nearly 40% less in albuminuria than Ang 11-infused WT animals (5.90±0.93 vs. 9.38±1.43 mg/mg Cr; p=0.05). […] Thus, the lower blood pressures in IL-1 receptor-deficient mice led to reduced hypertensive damage to the heart and kidney.
Uni-nephrectomized IL-1 R-deficient(IL-1R KO) and wild-type (WT) mice was chronically infused with (1000 ng/kg/min) for 4 weeks using an implanted osmotic mini-pump after measurement of baseline blood pressures. The mice were then treated with vehicle or anakinra (50 mg/kg/day IP) once daily beginning 3 days prior to and continuing throughout the Ang II infusion period (FIG. 3). Blood pressure was monitored continuously using radiotelemetry.
Next, levels of albuminuria, which is a marker for kidney damage, were measured in Ang II-infused IL-1R Kos and wild type mice. It was observed that the levels of albuminuria were reduced by 37% in the IL1R KO mice vs. the wild type: 5899±929 vs. 9380±1423, n=9,10, p=0.052 (37.1% reduction); for 24 hour albuminuria, 3574 vs. 5082, p=0.0810 (30.4% reduction).

[3] = tested on: patients with rheumatic diseases; details: in vivo; cited from earlier work
[4] = tested on: NKCC2; test: NKCC2 activity: 3-hour urine sodium to creatinine ratio after acute IP furosemide challenge at day 10 of Ang II; type: in vivo, mice; details: for urine sodium to creatinine ratio: 3-hour sodium excretion after IP furosemide
Text: (§1) Because IL-1 is secreted by macrophages, macrophage infiltration into the kidneys of the experimental animals was examined. After 4 weeks of hypertension, IL-1R KO kidneys contained more F4/80+ macrophages than WTs (18±1 vs. 14±2 per HPF; p=0.03). […] In turn, the KO group had enhanced renal mRNA expression of the NO-generating enzyme iNOS (1.7±0.3 vs. 1.0±0.2 au; p<0.05) and higher excretion of NO metabolites vs. WTs (152±46 vs. 60±15 nmol/mg Cr; p=0.05). NO inhibits renal sodium (Na) reabsorption, and during the 2″d wk of Ang II infusion when WT and KO BPs separated, only the KOs entered negative Na balance (−16.8±16.8 vs. WT 34.8±7.5 1-Jmol/day, p=0.01). To confirm that preserved NO bioavailability in the Ang 11-infused KOs led to their lower BP vs. WTs, we blocked NO generation in the groups with L-NAME starting on day 7 of Ang II when the WT and KO BPs were 179±3 vs. 165±6 mm Hg (p<0.01). By day 14, BPs converged (186±5 vs. 185±8; p=NS), (FIG. 2.) As NO is known to inhibit the NKCC2 sodium transporter in the kidney, NKCC2 activity at day 10 of Ang II was measured by quantitating urine sodium to creatinine ratios (UNa/UCr) 3 hours after an IP injection of saline with or without furosemide. […] Thus, reduced NKCC2 activity in the IL-1 R KOs protects them from Ang 11-induced sodium retention.
Therefore, to examine NKCC2 activity in the groups at day 10 of Ang II when the differences in sodium excretion was noted, 3-hour sodium excretion was quantitated in response to an acute intraperitoneal (IP) furosemide challenge (FIG. 8). In response to IP saline injection alone, the IL-1RKO mice had exaggerated urine sodium to creatinine ratios, consistent with their enhanced natriuresis in original balance study (237±38 vs. 120±9%; p=0.016). […] Without being bound by a particular theory, it is believed that IL-1 receptor activation stimulates renal sodium reabsorption via NKCC2-mediated sodium transport during Ang II-dependent HTN.

[5] = tested on: NO generation; test: Blockade of NO generation with L-NAME in Ang II-infused WT and IL-1R KO mice, blood pressure; type: in vivo; details: L-NAME in drinking water from day 7 of Ang II, by day 14
Text: as §1, with “retention. […]” for “retention.”

## Anakinra: recombinant, nonglycosylated form of the human interleukin-1 receptor antagonist (IL-1Ra) with an added N-terminal methionine, 153 amino acids
[1]; 50 mg/kg/day IP once daily, during Ang II infusion (1000 ng/kg/min)
  ability to limit blood pressure elevation / protection from hypertension: as robust as genetic deletion of the receptor; also recorded: as profound as that seen in the IL-1R KO mice
[1]; 50 mg/kg/day IP, before Ang II infusion (Pre)
  effect on baseline blood pressure: no impact; also recorded: no effect
[2]; FIG. 9A
  decrease in cardiac hypertrophy: as profound as that seen in the IL-1R KO mice
[2]; FIG. 9B
  decrease in albuminuria: as profound as that seen in the IL-1R KO mice
[3]
  hypotension in clinical trials: lack of hypotension

## NS(=O)(=O)c1cc(C(=O)O)c(NCc2ccco2)cc1Cl [furosemide]
[4]; IL-1R KO mice
  urine sodium to creatinine ratio: 481±103%
[4]; WT mice
  urine sodium to creatinine ratio: 453±56%
[4]; WT mice, 3 hours after IP furosemide
  urine sodium to creatinine ratio (UNa/UCr): 453±60 mmollmmol

## COC(=O)[C@@H](N)CCCNC(=N)N[N+](=O)[O-] [L-NAME, L-Nitroarginine Methyl Ester]
[5]; IL-1R KO mice
  blood pressure following L-NAME treatment: 185±8 mm Hg
[5]; WT mice
  blood pressure following L-NAME treatment: 186±5 mm Hg
